Like-named read-outs stand apart in the source and are kept apart here.
Experiments:
Assay type in all cases: cell-based
[1] = system: HCV 2a Rluc cells (NS5A chimeric genotype 2a JFH-1 replicon with genotype 2a J6 strain NS5A gene, M31 present); assay: HCV replicon reporter assay, genotype 2a J6 (M31 present); conditions: Hepatitis C virus, read-out: 2a J6
In short: (§1)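 Renilla luciferase HCV replicon cells: dicistronic 1b Con1, 1a H77 or 2a JFH-1 replicons, or a JFH-1 chimera carrying J6 NS5A (M31 present). Compound in DMSO serial dilutions, 72 h incubation, then lysis and luciferase read. EC50 by non-linear regression.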

[2] = system: HCV 1a RLuc cells (dicistronic genotype 1a H77 replicon, RLuc reporter); assay: microbe, parasite or virus in culture; conditions: Hepatitis C virus, read-out: 1a
In short: as §1

[3] = system: HCV 2a JFH-1 Rluc cells (dicistronic genotype 2a JFH-1 replicon, RLuc reporter); assay: microbe, parasite or virus in culture; conditions: Hepatitis C virus, read-out: 2a JFH
In short: as §1

[4] = system: HCV 4a Rluc cells (NS5A chimeric genotype 1b Con1 replicon with genotype 4a NS5A gene); assay: microbe, parasite or virus in culture; conditions: Hepatitis C virus, read-out: 4a
In short: (§2)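 Replicon cells stably carrying the listed RLuc-encoding dicistronic replicons were seeded and treated with DMSO serial dilutions of compound (10 mM stocks) diluted into culture medium. After 72 h, cells were lysed and Renilla luciferase activity measured. EC50 was derived by non-linear regression.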

[5] = system: HCV 1b RLuc cells (dicistronic genotype 1b Con1 replicon, RLuc reporter); assay: microbe, parasite or virus in culture; conditions: Hepatitis C virus, read-out: 1b (nM)
In short: as §1

[6] = system: HCV 2b Rluc cells (NS5A chimeric genotype 2a JFH-1 replicon with genotype 2b MD2b-1 NS5A gene, M31 present); assay: microbe, parasite or virus in culture; conditions: Hepatitis C virus, read-out: 2b
In short: as §2

[7] = system: HCV 3a RLuc cells (NS5A chimeric genotype 1b Con1 replicon with consensus genotype 3a NS5A gene); assay: microbe, parasite or virus in culture; conditions: Hepatitis C virus
In short: as §2

[8] = genotype 2a JFH-1 RLuc replicon
[9] = read-out: 3a, genotype 3a NS5A chimeric replicon
[10] = read-out: 3a, genotype 3a replicon

COC(=O)N[C@H](C(=O)N1CCC[C@H]1c1ncc(-c2ccc3cc(-c4ccc(-c5cnc([C@@H]6C[C@H](F)CN6C(=O)[C@H](NC(=O)OC)c6ccccc6)[nH]5)cc4)ccc3c2)[nH]1)C(C)C [Example 129]
EC50 [1]: > 44 nM | EC50 ([2]; genotype 1a H77 replicon, RLuc reporter): 0.001 to 0.999 nM | EC50 ([3]; genotype 2a JFH-1 replicon, RLuc reporter): 0.001 to 0.999 nM | EC50 [4]: 0.001 to 0.99 nM | EC50 [5]: 0.007 nM | EC50 [6]: > 44 nM | EC50 ([7]; read-out: 3a, genotype 3a NS5A chimeric 1b Con1 replicon): 0.001 to 0.99 nM

CCC(=O)N[C@@H](C(=O)N1CCC[C@H]1c1ncc(-c2ccc3c(c2)COc2cc4c(ccc5nc([C@@H]6CCCN6C(=O)[C@@H](NC(=O)OC)C(C)C)[nH]c54)cc2-3)[nH]1)c1ccccc1 [Example 499]
EC50 [1]: 0.001 to 0.999 nM | EC50 ([2]; genotype 1a H77 RLuc replicon): 0.001 to 0.999 nM | EC50 [3, 8]: 0.001 to 0.999 nM | EC50 [4]: 0.001 to 0.99 nM | EC50 [5]: 0.032 nM | EC50 [6]: 0.001 to 0.999 nM | EC50 [7, 9]: 0.001 to 0.99 nM

COC(=O)N[C@@H](C(=O)N1CCC[C@H]1c1nc(Cl)c(-c2cc3c4c(c2)OCc2cc(-c5[nH]c([C@@H]6CCCN6C(=O)[C@H](NC(=O)OC)c6ccccc6)nc5Cl)cc(c2-4)OC3)[nH]1)c1ccccc1 [Example 421]
EC50 [1]: 0.001 to 0.999 nM | EC50 ([2]; genotype 1a replicon): 0.001 to 0.999 nM | EC50 ([3]; genotype 2a JFH-1 replicon): 0.001 to 0.999 nM | EC50 [4]: 0.001 to 0.99 nM | EC50 [5]: 0.041 nM | EC50 [6]: 0.001 to 0.999 nM | EC50 [7, 10]: 0.001 to 0.99 nM

O=C([C@H](Nc1ncccn1)c1ccccc1)N1CCC[C@H]1c1ncc(-c2cc3c4c(c2)OCc2cc(-c5cnc([C@@H]6CCCN6C(=O)[C@H](Nc6ncccn6)c6ccccc6)[nH]5)cc(c2-4)OC3)[nH]1 [Example 463]
EC50 [1]: > 44 nM | EC50 ([2]; genotype 1a replicon): 1 to 44 nM | EC50 ([3]; genotype 2a JFH-1 replicon): 1 to 44 nM | EC50 [4]: > 5 nM | EC50 [6]: > 44 nM | EC50 [7, 10]: 1 to 4.99 nM

COC[C@H]1C[C@@H](c2ncc(-c3ccc(-c4ccc(-c5cnc([C@@H]6C[C@H]7C[C@H]7N6C(=O)[C@H](NC(=O)C6CC6)c6ccccc6)[nH]5)cc4)cc3)[nH]2)N(C(=O)[C@@H](NC(=O)OC)C(C)C)C1 [Example 519]
EC50 [1]: 0.001 to 0.999 nM | EC50 ([2]; genotype 1a H77 RLuc replicon): 0.001 to 0.999 nM | EC50 [3, 8]: 0.001 to 0.999 nM | EC50 [4]: 0.001 to 0.99 nM | EC50 [5]: 0.01 nM | EC50 [6]: 0.001 to 0.999 nM

COC[C@H]1C[C@@H](c2nc3ccc4cc(-c5ccc(-c6[nH]c([C@@H]7CCCN7C(=O)[C@@H](NC(=O)OC)C(C)C)nc6C)cc5)ccc4c3[nH]2)N(C(=O)[C@@H](NC(=O)OC)C(C)C)C1 [Example 524]
EC50 [1]: > 44 nM | EC50 ([2]; genotype 1a H77 RLuc replicon): 0.001 to 0.999 nM | EC50 [3, 8]: 0.001 to 0.999 nM | EC50 [4]: 0.001 to 0.99 nM | EC50 [5]: 0.02 nM | EC50 [6]: 1 to 44 nM

COC[C@H]1C[C@@H](c2nc3ccc4cc(-c5ccc6c(ccc7nc([C@@H]8C[C@H]9C[C@H]9N8C(=O)[C@@H](NC(=O)OC)C(C)(C)C)[nH]c76)c5)ccc4c3[nH]2)N(C(=O)[C@H](NC(=O)OC)c2ccccc2)C1 [Example 530]
EC50 [1]: 0.001 to 0.999 nM | EC50 ([2]; genotype 1a H77 RLuc replicon): 0.001 to 0.999 nM | EC50 [3, 8]: 0.001 to 0.999 nM | EC50 [4]: 0.001 to 0.99 nM | EC50 [5]: 0.011 nM | EC50 [6]: 0.001 to 0.999 nM

COC(=O)N[C@H](C(=O)N1CCC[C@H]1c1ncc(-c2cc3c4c(c2)OCc2cc(-c5cnc([C@@H]6CCCN6C(=O)[C@H](NC(=O)C6CCC6)c6ccccc6)[nH]5)cc(c2-4)OC3)[nH]1)C(C)C [Example 521]
EC50 [1]: 0.001 to 0.999 nM | EC50 ([2]; genotype 1a H77 RLuc replicon): 0.001 to 0.999 nM | EC50 [3, 8]: 0.001 to 0.999 nM | EC50 [4]: 0.001 to 0.99 nM | EC50 [5]: 0.028 nM | EC50 [6]: 0.001 to 0.999 nM

COC(=O)N[C@H](C(=O)N1CCC[C@H]1c1nc2ccc3cc(-c4ccc5c(ccc6nc([C@@H]7C[C@H](SC)CN7C(=O)[C@H](NC(=O)OC)c7ccccc7)[nH]c65)c4)ccc3c2[nH]1)C(C)C [Example 535]
EC50 [1]: 0.001 to 0.999 nM | EC50 ([2]; genotype 1a H77 RLuc replicon): 0.001 to 0.999 nM | EC50 [3, 8]: 0.001 to 0.999 nM | EC50 [4]: 0.001 to 0.99 nM | EC50 [5]: 0.022 nM | EC50 [6]: 0.001 to 0.999 nM

COC[C@H]1C[C@@H](c2nc3ccc4cc5c(cc4c3[nH]2)OCc2cc(-c3ccc4nc([C@@H]6CCCN6C(=O)[C@@H](NC(=O)OC)C(C)C)[nH]c4c3)ccc2-5)N(C(=O)[C@@H](NC(=O)OC)C(C)C)C1 [Example 563]
EC50 [1]: > 44 nM | EC50 ([2]; genotype 1a H77 RLuc replicon): 0.001 to 0.999 nM | EC50 [3, 8]: 0.001 to 0.999 nM | EC50 [4]: 0.001 to 0.99 nM | EC50 [5]: 0.007 nM | EC50 [6]: > 44 nM

CC[C@H](C)[C@H](NC(=O)OC)C(=O)N1C[C@@H](COC)C[C@H]1c1ncc(-c2ccc3c(c2)COc2cc4c(ccc5nc([C@@H]6C[C@H](COC)CN6C(=O)[C@@H](NC(=O)OC)[C@@H](C)CC)[nH]c54)cc2-3)[nH]1 [Example 580]
EC50 [1]: 0.001 to 0.999 nM | EC50 ([2]; genotype 1a H77 RLuc replicon): 0.001 to 0.999 nM | EC50 [3, 8]: 0.001 to 0.999 nM | EC50 [4]: 0.001 to 0.99 nM | EC50 [6]: 0.001 to 0.999 nM | EC50 [7, 9]: 0.001 to 0.99 nM

COC(=O)N[C@H](C(=O)N1CCC[C@H]1c1nc2ccc3cc(-c4ccc5c(ccc6nc([C@@H]7C[C@H](COC(F)F)CN7C(=O)[C@H](NC(=O)OC)c7ccccc7)[nH]c65)c4)ccc3c2[nH]1)C(C)C [Example 528]
EC50 [1]: 0.001 to 0.999 nM | EC50 ([2]; genotype 1a H77 RLuc replicon): 0.001 to 0.999 nM | EC50 [3, 8]: 0.001 to 0.999 nM | EC50 [4]: 0.001 to 0.99 nM | EC50 [5]: 0.01 nM | EC50 [6]: 0.001 to 0.999 nM

CN(C)CCC(=O)N[C@@H](C(=O)N1CCC[C@H]1c1ncc(-c2cc3c4c(c2)OCc2cc(-c5cnc([C@@H]6CCCN6C(=O)[C@H](NC(=O)CCN(C)C)c6ccccc6)[nH]5)cc(c2-4)OC3)[nH]1)c1ccccc1 [Example 467]
EC50 [1]: > 44 nM | EC50 ([2]; genotype 1a replicon): > 44 nM | EC50 ([3]; genotype 2a JFH-1 replicon): > 44 nM | EC50 [4]: > 5 nM | EC50 [6]: > 44 nM | EC50 [7, 10]: > 5 nM

COC[C@H]1C[C@@H](c2nc3ccc4cc(-c5ccc6c(ccc7nc([C@@H]8CCCN8C(=O)[C@@H](NC(=O)OC)C(C)C)[nH]c76)c5)ccc4c3[nH]2)N(C(=O)[C@H](NC(=O)C2CCC2)c2ccccc2)C1 [Example 537]
EC50 [1]: 0.001 to 0.999 nM | EC50 ([2]; genotype 1a H77 RLuc replicon): 0.001 to 0.999 nM | EC50 [3, 8]: 0.001 to 0.999 nM | EC50 [4]: 0.001 to 0.99 nM | EC50 [5]: 0.014 nM | EC50 [6]: 0.001 to 0.999 nM

COC[C@H]1C[C@@H](c2nc3ccc4cc(-c5ccc(-c6cnc([C@@H]7CCCN7C(=O)[C@@H](NC(=O)OC)C(C)C)[nH]6)cc5)ccc4c3[nH]2)N(C(=O)[C@H](NC(=O)C2CCC2)c2ccccc2)C1 [Example 533]
EC50 [1]: 0.001 to 0.999 nM | EC50 ([2]; genotype 1a H77 RLuc replicon): 0.001 to 0.999 nM | EC50 [3, 8]: 0.001 to 0.999 nM | EC50 [4]: 0.001 to 0.99 nM | EC50 [5]: 0.012 nM | EC50 [6]: 0.001 to 0.999 nM

CN1CCN(C(=O)N[C@@H](C(=O)N2CCC[C@H]2c2ncc(-c3cc4c5c(c3)OCc3cc(-c6cnc([C@@H]7CCCN7C(=O)[C@H](NC(=O)N7CCN(C)CC7)c7ccccc7)[nH]6)cc(c3-5)OC4)[nH]2)c2ccccc2)CC1 [Example 464]
EC50 [1]: 1 to 44 nM | EC50 ([2]; genotype 1a replicon): > 44 nM | EC50 ([3]; genotype 2a JFH-1 replicon): 1 to 44 nM | EC50 [4]: > 5 nM | EC50 [6]: > 44 nM | EC50 [7, 10]: 1 to 4.99 nM

COC(=O)N[C@H](C(=O)N1CCC[C@H]1c1ncc(-c2cc3c4c(c2)OCc2cc(-c5cnc([C@@H]6CCCN6C(=O)[C@H](NC(=O)c6ccccn6)c6ccccc6)[nH]5)cc(c2-4)OC3)[nH]1)C(C)C [Example 522]
EC50 [1]: > 44 nM | EC50 ([2]; genotype 1a H77 RLuc replicon): 0.001 to 0.999 nM | EC50 [3, 8]: 0.001 to 0.999 nM | EC50 [4]: 0.001 to 0.99 nM | EC50 [5]: 0.023 nM | EC50 [6]: 0.001 to 0.999 nM

COC[C@H]1C[C@@H](c2ncc(-c3ccc(-c4ccc(-c5cnc([C@@H]6C[C@H](C)CN6C(=O)[C@H](NC(=O)C6CC6)c6ccccc6)[nH]5)cc4)cc3)[nH]2)N(C(=O)[C@@H](NC(=O)OC)C(C)C)C1 [Example 557]
EC50 [1]: 0.001 to 0.999 nM | EC50 ([2]; genotype 1a H77 RLuc replicon): 0.001 to 0.999 nM | EC50 [3, 8]: 0.001 to 0.999 nM | EC50 [4]: 0.001 to 0.99 nM | EC50 [5]: 0.028 nM | EC50 [6]: 0.001 to 0.999 nM
